Test results reported in patent publication US8802597B2, “Herbicidal pyrimidines” (E I du Pont de Nemours and Company, priority 2003, dated 2014).
Read-outs that look alike come from different tables or passages of the source.

What was measured:
Assay in all cases: Test C pre/postemergence
Type in all cases: in vivo
[1] = tested on: bermudagrass (Cynodon dactylon); settings: Cynodon dactylon; for pest or weed control at 31 g/ha: 31 g ai/ha; for pest or weed control at 62 g/ha: 62 g ai/ha; for pest or weed control at 125 g/ha: 125 g ai/ha; for pest or weed control at 125 g/ha / pest or weed control at 250 g/ha: scale 0 to 100; for pest or weed control at 250 g/ha: 250 g ai/ha
Method in brief: (§1)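 Applications: preemergence onto seeded soil and postemergence onto 1- to 4-leaf seedlings, compound carried in non-phytotoxic solvent plus surfactant. Kept in greenhouse 12 to 14 days. Scored visually relative to untreated controls, 0 (no effect) to 100 (complete control).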

[2] = tested on: cocklebur (Xanthium strumarium); settings: Xanthium strumarium; for pest or weed control at 31 g/ha: 31 g ai/ha; for pest or weed control at 62 g/ha: 62 g ai/ha; for pest or weed control at 125 g/ha: 125 g ai/ha; for pest or weed control at 250 g/ha: 250 g ai/ha
Method in brief: as §1

[3] = tested on: common (oilseed) sunflower (Helianthus annuus); settings: Helianthus annuus, pre-emergence, Preemergence, read-out: Plant response rating, Sunflower
Method in brief: as §1

[4] = tested on: common ragweed (Ambrosia elatior); settings: Ambrosia artemisiifolia; for pest or weed control at 31 g/ha: 31 g ai/ha; for pest or weed control at 62 g/ha: 62 g ai/ha; for pest or weed control at 125 g/ha: 125 g ai/ha; for pest or weed control at 250 g/ha: 250 g ai/ha
Method in brief: as §1

[5] = tested on: goosegrass (Eleusine indica); settings: Eleusine indica; for pest or weed control at 31 g/ha: 31 g ai/ha; for pest or weed control at 62 g/ha: 62 g ai/ha; for pest or weed control at 125 g/ha: 125 g ai/ha; for pest or weed control at 250 g/ha: 250 g ai/ha
Method in brief: as §1

[6] = tested on: johnsongrass (Sorghum halepense); settings: Sorghum halepense; for pest or weed control at 31 g/ha: 31 g ai/ha; for pest or weed control at 62 g/ha: 62 g ai/ha
Method in brief: as §1

[7] = post-emergence, Postemergence, read-out: Plant response rating, Bermudagrass
[8] = pre-emergence, Preemergence, scale 0 to 100, 0 no effect, 100 complete control, read-out: Plant response rating, Bermudagrass
[9] = pre-emergence, Preemergence, read-out: Plant response rating, Bermudagrass
[10] = post-emergence, Postemergence, scale 0 to 100 (0 no effect, 100 complete control), read-out: Cocklebur plant response rating
[11] = pre-emergence, Preemergence, scale 0 to 100, 0 no effect, 100 complete control, read-out: Plant response rating, Cocklebur
[12] = pre-emergence, Preemergence, scale 0 to 100, read-out: Plant response rating, Cocklebur
[13] = post-emergence, Postemergence, scale 0 to 100 (0 no effect, 100 complete control), read-out: Ragweed plant response rating
[14] = pre-emergence, Preemergence, scale 0 to 100, 0 no effect, 100 complete control, read-out: Plant response rating, Ragweed
[15] = pre-emergence, Preemergence, scale 0 to 100, read-out: Plant response rating, Ragweed
[16] = post-emergence, Postemergence, scale 0 to 100 (0 no effect, 100 complete control), read-out: Goosegrass plant response rating
[17] = pre-emergence, Preemergence, scale 0 to 100, 0 no effect, 100 complete control, read-out: Plant response rating, Goosegrass
[18] = pre-emergence, Preemergence, scale 0 to 100, read-out: Plant response rating, Goosegrass
[19] = pre-emergence, Preemergence, scale 0 to 100, 0 no effect, 100 complete control, read-out: Plant response rating, Johnsongrass

**Q.** Which results are given for `COC(=O)c1nc(C2CC2)nc(N)c1Cl` [Compound 9, methyl 6-amino-5-chloro-2-cyclopropyl-4-pyrimidinecarboxylate]?
**A.** pest or weed control at 31 g/ha ([1]; post-emergence, Postemergence, read-out: Plant response rating (scale of 0 to 100), Bermudagrass): 60%; pest or weed control at 62 g/ha ([1]; post-emergence, Postemergence, scale 0 to 100 (0 no effect, 100 complete control), read-out: Bermudagrass plant response rating): 65%; pest or weed control at 125 g/ha [1, 7]: 70%; pest or weed control at 250 g/ha [1, 7]: 80%; pest or weed control at 31 g/ha [1, 8]: 100%; pest or weed control at 62 g/ha [1, 8]: 100%; pest or weed control at 125 g/ha [1, 9]: 100%; pest or weed control at 250 g/ha [1, 9]: 100%; pest or weed control at 31 g/ha ([2]; post-emergence, Postemergence, read-out: Plant response rating (scale of 0 to 100), Cocklebur): 40%; pest or weed control at 62 g/ha [2, 10]: 85%; pest or weed control at 125 g/ha [2, 10]: 100%; pest or weed control at 250 g/ha ([2]; post-emergence, Postemergence, scale 0 to 100, read-out: Plant response rating, Cocklebur): 100%; pest or weed control at 31 g/ha [2, 11]: 75%; pest or weed control at 62 g/ha [2, 11]: 80%; pest or weed control at 125 g/ha [2, 12]: 100%; pest or weed control at 250 g/ha [2, 12]: 100%; pest or weed control at 31 g/ha ([3]; 31 g ai/ha, scale 0 to 100, 0 no effect, 100 complete control): 100%; pest or weed control at 62 g/ha ([3]; 62 g ai/ha, scale 0 to 100, 0 no effect, 100 complete control): 100%; pest or weed control at 125 g/ha ([3]; 125 g ai/ha, scale 0 to 100): 100%; pest or weed control at 250 g/ha ([3]; 250 g ai/ha, scale 0 to 100): 100%; pest or weed control at 31 g/ha ([4]; post-emergence, Postemergence, read-out: Plant response rating (scale of 0 to 100), Ragweed): 70%; pest or weed control at 62 g/ha [4, 13]: 80%; pest or weed control at 125 g/ha [4, 13]: 95%; pest or weed control at 250 g/ha ([4]; post-emergence, Postemergence, scale 0 to 100, read-out: Plant response rating, Ragweed): 100%; pest or weed control at 31 g/ha [4, 14]: 100%; pest or weed control at 62 g/ha [4, 14]: 100%; pest or weed control at 125 g/ha [4, 15]: 100%; pest or weed control at 250 g/ha [4, 15]: 100%; pest or weed control at 31 g/ha ([5]; post-emergence, Postemergence, read-out: Plant response rating (scale of 0 to 100), Goosegrass): 0%; pest or weed control at 62 g/ha [5, 16]: 0%; pest or weed control at 125 g/ha [5, 16]: 40%; pest or weed control at 250 g/ha ([5]; post-emergence, Postemergence, scale 0 to 100, read-out: Plant response rating, Goosegrass): 45%; pest or weed control at 31 g/ha [5, 17]: 0%; pest or weed control at 62 g/ha [5, 17]: 0%; pest or weed control at 125 g/ha [5, 18]: 20%; pest or weed control at 250 g/ha [5, 18]: 50%; pest or weed control at 31 g/ha ([6]; post-emergence, Postemergence, read-out: Plant response rating (scale of 0 to 100), Johnsongrass): 55%; pest or weed control at 62 g/ha ([6]; post-emergence, Postemergence, scale 0 to 100 (0 no effect, 100 complete control), read-out: Johnsongrass plant response rating): 65%; pest or weed control at 125 g/ha ([6]; post-emergence, Postemergence, 125 g ai/ha, scale 0 to 100 (0 no effect, 100 complete control), read-out: Johnsongrass plant response rating): 80%; pest or weed control at 250 g/ha ([6]; post-emergence, Postemergence, 250 g ai/ha, scale 0 to 100, read-out: Plant response rating, Johnsongrass): 85%; pest or weed control at 31 g/ha [6, 19]: 15%; pest or weed control at 62 g/ha [6, 19]: 45%
